The text below walks through data of patent US12721821B2, “Plant essential oil amino acid composition and preparation method therefor” (COCRYSTAL TECHNOLOGY (JIAXING) CO., LTD, priority 2021, dated 2026).

Each structure is given as a SMILES string.

The nature of the series: Vapor pressure from thermogravimetric analysis (TGA), kept at 80° C. for 100 minutes. The following applies: calculated from weight loss rate. It is filed as physicochemical. How it is done:
For thermogravimetric analysis (TGA) method, instrument model: Netzsch TG 209F3 thermogravimetric analyzer detection, temperature: 80° C. for 100 minutes, purge gas: 25 mL/min.
Thymol and/or carvacrol and L-proline and/or sarcosine were added to a ball mill according to the compositions shown in Table 2, and vibrated at a vibrating frequency of 30 Hz for a vibrating time of 20 minutes to obtain the compositions. The compositions were subjected to thermogravimetric analysis (TGA), kept at 80° C. for 100 minutes, and the vapor pressure of thymol and/or carvacrol and the compositions thereof were calculated according to the formula:
[formula] • wherein m is the mass of the sample at time t, −dm/dt is the weight loss rate per unit area, p is the saturated vapor pressure, α is the vaporization constant, T is the absolute temperature, R is the gas constant, and M is the molecule mass of the evaporated substance. Under vacuum condition, α=1. α can be considered as a constant when a protective gas is present.

Consider `Cc1ccc(C(C)C)cc1O` [carvacrol], for which the “vapor pressure (Pa) at 80° C.” value is listed as 242 Pa.
The figure for `Cc1ccc(C(C)C)c(O)c1` [thymol] is 333 Pa.
